{
  "source": "BigSolDB 2.1",
  "data": [
    {"molecule": "O=c1[nH]cc(F)c(=O)[nH]1", "values": [
      {"measurement": "solubility (mole fraction)", "setting": "in 1,4-dioxane, 290.2 K", "value": 0.00112},
      {"measurement": "solubility (mole fraction)", "setting": "in 1,4-dioxane, 291.3 K", "value": 0.00123},
      {"measurement": "solubility (mole fraction)", "setting": "in 1,4-dioxane, 300.9 K", "value": 0.00158},
      {"measurement": "solubility (mole fraction)", "setting": "in 1,4-dioxane, 305.2 K", "value": 0.00176},
      {"measurement": "solubility (mole fraction)", "setting": "in 1,4-dioxane, 306.4 K", "value": 0.00187},
      {"measurement": "solubility (mole fraction)", "setting": "in 1,4-dioxane, 310.4 K", "value": 0.00205},
      {"measurement": "solubility (mole fraction)", "setting": "in 1,4-dioxane, 313.3 K", "value": 0.00218},
      {"measurement": "solubility (mole fraction)", "setting": "in 1,4-dioxane, 313.9 K", "value": 0.00225},
      {"measurement": "solubility (mole fraction)", "setting": "in 1,4-dioxane, 318 K", "value": 0.00247},
      {"measurement": "solubility (mole fraction)", "setting": "in 1,4-dioxane, 319.5 K", "value": 0.00258},
      {"measurement": "solubility (mole fraction)", "setting": "in 1,4-dioxane, 322.8 K", "value": 0.00284},
      {"measurement": "solubility (mole fraction)", "setting": "in 1,4-dioxane, 329.8 K", "value": 0.00332},
      {"measurement": "solubility (mole fraction)", "setting": "in THF, 279.6 K", "value": 0.00246},
      {"measurement": "solubility (mole fraction)", "setting": "in THF, 287 K", "value": 0.00273},
      {"measurement": "solubility (mole fraction)", "setting": "in THF, 293.2 K", "value": 0.00289},
      {"measurement": "solubility (mole fraction)", "setting": "in THF, 303.8 K", "value": 0.00328},
      {"measurement": "solubility (mole fraction)", "setting": "in THF, 308.7 K", "value": 0.00349},
      {"measurement": "solubility (mole fraction)", "setting": "in THF, 314.6 K", "value": 0.00367},
      {"measurement": "solubility (mole fraction)", "setting": "in THF, 325.2 K", "value": 0.00418},
      {"measurement": "solubility (mole fraction)", "setting": "in THF, 328.6 K", "value": 0.00454},
      {"measurement": "solubility (mole fraction)", "setting": "in acetone, 282.9 K", "value": 0.00152},
      {"measurement": "solubility (mole fraction)", "setting": "in acetone, 290.2 K", "value": 0.00175},
      {"measurement": "solubility (mole fraction)", "setting": "in acetone, 298.4 K", "value": 0.00199},
      {"measurement": "solubility (mole fraction)", "setting": "in acetone, 302.5 K", "value": 0.00219},
      {"measurement": "solubility (mole fraction)", "setting": "in acetone, 305.1 K", "value": 0.00229},
      {"measurement": "solubility (mole fraction)", "setting": "in acetone, 307.4 K", "value": 0.00244},
      {"measurement": "solubility (mole fraction)", "setting": "in acetone, 315.2 K", "value": 0.0028},
      {"measurement": "solubility (mole fraction)", "setting": "in acetone, 316.9 K", "value": 0.00299},
      {"measurement": "solubility (mole fraction)", "setting": "in acetone, 322.4 K", "value": 0.00304},
      {"measurement": "solubility (mole fraction)", "setting": "in acetonitrile, 290.3 K", "value": 0.00046},
      {"measurement": "solubility (mole fraction)", "setting": "in acetonitrile, 294.6 K", "value": 0.00053},
      {"measurement": "solubility (mole fraction)", "setting": "in acetonitrile, 299.1 K", "value": 0.00062},
      {"measurement": "solubility (mole fraction)", "setting": "in acetonitrile, 300.3 K", "value": 0.00066},
      {"measurement": "solubility (mole fraction)", "setting": "in acetonitrile, 306.6 K", "value": 0.00081},
      {"measurement": "solubility (mole fraction)", "setting": "in acetonitrile, 307.6 K", "value": 0.00083},
      {"measurement": "solubility (mole fraction)", "setting": "in acetonitrile, 316 K", "value": 0.00102},
      {"measurement": "solubility (mole fraction)", "setting": "in acetonitrile, 320.2 K", "value": 0.00121},
      {"measurement": "solubility (mole fraction)", "setting": "in acetonitrile, 329 K", "value": 0.00143},
      {"measurement": "solubility (mole fraction)", "setting": "in acetonitrile, 332.3 K", "value": 0.00162},
      {"measurement": "solubility (mole fraction)", "setting": "in ethanol, 281.1 K", "value": 0.00099},
      {"measurement": "solubility (mole fraction)", "setting": "in ethanol, 286.9 K", "value": 0.00124},
      {"measurement": "solubility (mole fraction)", "setting": "in ethanol, 291.2 K", "value": 0.00137},
      {"measurement": "solubility (mole fraction)", "setting": "in ethanol, 297.7 K", "value": 0.00167},
      {"measurement": "solubility (mole fraction)", "setting": "in ethanol, 306.2 K", "value": 0.00206},
      {"measurement": "solubility (mole fraction)", "setting": "in ethanol, 309.1 K", "value": 0.00216},
      {"measurement": "solubility (mole fraction)", "setting": "in ethanol, 314.8 K", "value": 0.0026},
      {"measurement": "solubility (mole fraction)", "setting": "in ethanol, 315.1 K", "value": 0.00267},
      {"measurement": "solubility (mole fraction)", "setting": "in ethanol, 322.8 K", "value": 0.0032},
      {"measurement": "solubility (mole fraction)", "setting": "in ethanol, 323.7 K", "value": 0.00329},
      {"measurement": "solubility (mole fraction)", "setting": "in ethanol, 325.6 K", "value": 0.00366},
      {"measurement": "solubility (mole fraction)", "setting": "in ethanol, 329.9 K", "value": 0.00399},
      {"measurement": "solubility (mole fraction)", "setting": "in ethyl acetate, 291.1 K", "value": 0.00041},
      {"measurement": "solubility (mole fraction)", "setting": "in ethyl acetate, 297 K", "value": 0.00048},
      {"measurement": "solubility (mole fraction)", "setting": "in ethyl acetate, 300.6 K", "value": 0.00054},
      {"measurement": "solubility (mole fraction)", "setting": "in ethyl acetate, 310.8 K", "value": 0.00063},
      {"measurement": "solubility (mole fraction)", "setting": "in ethyl acetate, 320.3 K", "value": 0.00077},
      {"measurement": "solubility (mole fraction)", "setting": "in ethyl acetate, 330.6 K", "value": 0.00099},
      {"measurement": "solubility (mole fraction)", "setting": "in isopropanol, 282.1 K", "value": 0.00085},
      {"measurement": "solubility (mole fraction)", "setting": "in isopropanol, 284.6 K", "value": 0.00089},
      {"measurement": "solubility (mole fraction)", "setting": "in isopropanol, 286.8 K", "value": 0.00102},
      {"measurement": "solubility (mole fraction)", "setting": "in isopropanol, 294.9 K", "value": 0.00119},
      {"measurement": "solubility (mole fraction)", "setting": "in isopropanol, 301.3 K", "value": 0.00147},
      {"measurement": "solubility (mole fraction)", "setting": "in isopropanol, 302.4 K", "value": 0.00163},
      {"measurement": "solubility (mole fraction)", "setting": "in isopropanol, 308 K", "value": 0.00188},
      {"measurement": "solubility (mole fraction)", "setting": "in isopropanol, 311.6 K", "value": 0.00217},
      {"measurement": "solubility (mole fraction)", "setting": "in isopropanol, 316.2 K", "value": 0.00237},
      {"measurement": "solubility (mole fraction)", "setting": "in isopropanol, 318 K", "value": 0.00258},
      {"measurement": "solubility (mole fraction)", "setting": "in isopropanol, 323 K", "value": 0.00301},
      {"measurement": "solubility (mole fraction)", "setting": "in isopropanol, 327.5 K", "value": 0.00346},
      {"measurement": "solubility (mole fraction)", "setting": "in isopropanol, 330 K", "value": 0.00381},
      {"measurement": "solubility (mole fraction)", "setting": "in methanol, 280 K", "value": 0.00165},
      {"measurement": "solubility (mole fraction)", "setting": "in methanol, 287.7 K", "value": 0.00216},
      {"measurement": "solubility (mole fraction)", "setting": "in methanol, 295.8 K", "value": 0.00289},
      {"measurement": "solubility (mole fraction)", "setting": "in methanol, 306.8 K", "value": 0.00379},
      {"measurement": "solubility (mole fraction)", "setting": "in methanol, 318.4 K", "value": 0.00502},
      {"measurement": "solubility (mole fraction)", "setting": "in methanol, 326 K", "value": 0.00581},
      {"measurement": "solubility (mole fraction)", "setting": "in methanol, 328.8 K", "value": 0.00661},
      {"measurement": "solubility (mole fraction)", "setting": "in n-butanol, 280.1 K", "value": 0.00058},
      {"measurement": "solubility (mole fraction)", "setting": "in n-butanol, 283 K", "value": 0.00059},
      {"measurement": "solubility (mole fraction)", "setting": "in n-butanol, 287.8 K", "value": 0.00086},
      {"measurement": "solubility (mole fraction)", "setting": "in n-butanol, 299.5 K", "value": 0.00103},
      {"measurement": "solubility (mole fraction)", "setting": "in n-butanol, 303.4 K", "value": 0.00121},
      {"measurement": "solubility (mole fraction)", "setting": "in n-butanol, 306.3 K", "value": 0.00141},
      {"measurement": "solubility (mole fraction)", "setting": "in n-butanol, 314.8 K", "value": 0.00182},
      {"measurement": "solubility (mole fraction)", "setting": "in n-butanol, 325.8 K", "value": 0.0026},
      {"measurement": "solubility (mole fraction)", "setting": "in n-butanol, 327 K", "value": 0.00267},
      {"measurement": "solubility (mole fraction)", "setting": "in n-butanol, 331.5 K", "value": 0.00313},
      {"measurement": "solubility (mole fraction)", "setting": "in n-propanol, 280.8 K", "value": 0.00082},
      {"measurement": "solubility (mole fraction)", "setting": "in n-propanol, 282.4 K", "value": 0.00089},
      {"measurement": "solubility (mole fraction)", "setting": "in n-propanol, 291.2 K", "value": 0.00098},
      {"measurement": "solubility (mole fraction)", "setting": "in n-propanol, 294.5 K", "value": 0.00108},
      {"measurement": "solubility (mole fraction)", "setting": "in n-propanol, 298.4 K", "value": 0.00121},
      {"measurement": "solubility (mole fraction)", "setting": "in n-propanol, 302.2 K", "value": 0.00123},
      {"measurement": "solubility (mole fraction)", "setting": "in n-propanol, 308.6 K", "value": 0.00149},
      {"measurement": "solubility (mole fraction)", "setting": "in n-propanol, 313 K", "value": 0.00172},
      {"measurement": "solubility (mole fraction)", "setting": "in n-propanol, 315.1 K", "value": 0.00179},
      {"measurement": "solubility (mole fraction)", "setting": "in n-propanol, 318.3 K", "value": 0.00208},
      {"measurement": "solubility (mole fraction)", "setting": "in n-propanol, 322.3 K", "value": 0.00224},
      {"measurement": "solubility (mole fraction)", "setting": "in n-propanol, 324.3 K", "value": 0.00245},
      {"measurement": "solubility (mole fraction)", "setting": "in n-propanol, 326.2 K", "value": 0.00263},
      {"measurement": "solubility (mole fraction)", "setting": "in water, 280.1 K", "value": 0.00091},
      {"measurement": "solubility (mole fraction)", "setting": "in water, 282.5 K", "value": 0.00093},
      {"measurement": "solubility (mole fraction)", "setting": "in water, 290.8 K", "value": 0.00124},
      {"measurement": "solubility (mole fraction)", "setting": "in water, 294.5 K", "value": 0.00147},
      {"measurement": "solubility (mole fraction)", "setting": "in water, 304.4 K", "value": 0.0021},
      {"measurement": "solubility (mole fraction)", "setting": "in water, 312.1 K", "value": 0.00288},
      {"measurement": "solubility (mole fraction)", "setting": "in water, 317.5 K", "value": 0.00337},
      {"measurement": "solubility (mole fraction)", "setting": "in water, 323 K", "value": 0.00402}
    ]}
  ]
}
